Assay results from US8574831B2, “Mutational profiles in HIV-1 reverse transcriptase correlated with phenotypic drug resistance” (Virco N.V., priority 2000, dated 2013).

Test system: HIV with mutations in the HIV protease sequence
Test: Phenotypic fold resistance to protease inhibitors, protease mutations 84A/84L/84C/54M/54L/54V in a background (Examples 8-13)
Assay type: cell-based, HIV-1
Method: As is the case with the genotyping assays, the recombinant virus assay starts with the amplification of viral target sequences by means of PCR. The amplicons are incorporated into a proviral laboratory clone with sequences homologous to those present in the amplicon deleted. This generates a stock of chimeric viruses. The viruses are tested for their ability to grow in the presence of different concentrations of drugs. Results are obtained by calculating IC50 values for each inhibitor and by reporting the results as IC50 values, expressed in μM concentrations, or by computing the ratio of the IC50 values found for the chimeric virus to the IC50 values found for a wild type susceptible laboratory virus tested in parallel. In the latter case, resistance is expressed as “fold-resistance” compared to a wild-type susceptible HIV-1 strain. In order to meet the need for high-volume testing and a short turn-around time for an individual test, the latest generation of phenotyping assays has undergone further modifications. The use of reporter gene systems for susceptibility testing allows the implementation of laboratory automation and standardization. See Pauwels, et al., J. Virol. Methods 20, 309-321 (1998); Paulous, S., et al., International Workshop on HIV Drug Resistance, Treatment Strategies and Eradication, St. Petersburg, Fla., USA. Abstr. 46 (1997); and Deeks, S. G., et al., 2nd International Workshop on HIV Drug Resistance and Treatment Strategies, Lake Maggiore, Italy. Abstr. 53 (1998).
The ANTIVIROGRAM® assay (Virco) (WO 97/27480) is based on homologous recombination of patient derived HIV-1 gag/PR/RT sequences into a proviral HIV-1 clone correspondingly deleted for the gag/PR/RT sequences. See Pauwels, et al., J. Virol. Methods 20, 309-321 (1998). A similar assay (Phenosense ViroLogic) is based on enzymatic ligation of patient-derived PR/RT sequences into a correspondingly deleted proviral vector carrying an indicator gene, luciferase, inserted in the deleted HIV-1 envelope gene. See Deeks, S. G., et al., 2nd International Workshop on HIV Drug Resistance and Treatment Strategies, Lake Maggiore, Italy. Abstr. 53 (1998). Hertogs et al. Antimicrob. Agents Chemother. 44(3) 568-573 (2000) the disclosures of which are herein incorporated by reference.
The methods of monitoring HIV-1 drug resistance, may also be used in combination with phenotypic drug resistance testing of viral isolates. For example, in one embodiment, a phenotypic test is utilized that is based upon the construction of chimeric HIV-1 strains composed of the protease (PR) and reverse transcriptase (RT) gene sequences which are isolated and amplified from the patient viral RNA. These strains may subsequently be recombined inside CD4+ T cells with a standard laboratory isogenic (HXB2) HIV-1 DNA construct from which the PR/RT gene sequences were deleted. The recombinant strains may then be grown in the presence of the above-mentioned antiviral drugs and the susceptibility of the viral isolates may be expressed as fold-change value of the IC50 of the drug on the patient isolates over the IC50 of the drug on a wild-type laboratory reference strain.

CC(C)(C)NC(=O)[C@@H]1CN(Cc2cccnc2)CCN1C[C@@H](O)C[C@@H](Cc1ccccc1)C(=O)N[C@H]1c2ccccc2C[C@H]1O [Indinavir, indinavir]
mean fold increase in resistance (Table 9 #1, protease genotype WT): 0.9 fold | mean fold increase in resistance (Table 9 #2, protease genotype 10I): 0.7 fold | mean fold increase in resistance (Table 9 #3, protease genotype 46I): 0.6 fold | mean fold increase in resistance (Table 9 #4, protease genotype 46I + 84V): 2.6 fold | mean fold increase in resistance (Table 9 #5, protease genotype 46I + 84A): 26.8 fold | mean fold increase in resistance (Table 9 #6, protease genotype 10I + 46I): 2.9 fold | mean fold increase in resistance (Table 9 #7, protease genotype 10I + 46I + 84V): 2.4 fold | mean fold increase in resistance (Table 9 #8, protease genotype 10I + 46I + 84A): 33.4 fold | mean fold increase in resistance (Table 9 #9, protease genotype 10L/I + 46I + 84A): 44.5 fold | mean fold increase in resistance (Table 9 #10, protease genotype 10I + 46I + 84A): 26 fold | mean fold increase in resistance (Table 9 #11, protease genotype 46I + 71V): 3.7 fold | mean fold increase in resistance (Table 9 #12, protease genotype 46I + 71V + 84V/I): 3.1 fold | mean fold increase in resistance (Table 9 #13, protease genotype 46I + 71V + 84A): 56.5 fold | mean fold increase in resistance (Table 9 #14, protease genotype 10F + 46I + 71V): 22.2 fold | mean fold increase in resistance (Table 9 #15, protease genotype 10I + 46I + 71V + 84V): 50.5 fold | mean fold increase in resistance (Table 9 #16, protease genotype 10I + 46I + 71V + 84A): 45.9 fold | mean fold increase in resistance (Table 9 #17, protease genotype 10V + 46I + 71T + 84A): 57.9 fold | mean fold increase in resistance (Table 9 #18, protease genotype 10I + 46I + 71V + 77I): 2.2 fold | mean fold increase in resistance (Table 9 #19, protease genotype 10I + 46I + 71V + 77I + 84V): 2.2 fold | mean fold increase in resistance (Table 9 #20, protease genotype 10I + 46I + 71V + 77I + 84A): 57.9 fold | mean fold increase in resistance (Table 9 #21, protease genotype 10I + 33L/I + 46I + 71V + 77V/I + 84A): 31.4 fold | mean fold increase in resistance (Table 10 #1, protease genotype 10I + 36I + 71V): 1.4 fold | mean fold increase in resistance (Table 10 #2, protease genotype 10I + 36I + 71I + 84V): 1.0 fold | mean fold increase in resistance (Table 10 #3, protease genotype 10I + 36I + 71I + 84L): 3.7 fold | mean fold increase in resistance (Table 11 #1, protease genotype WT): 0.9 fold | mean fold increase in resistance (Table 11 #2, protease genotype 84V): 0.7 fold | mean fold increase in resistance (Table 11 #3, protease genotype 84C): 2.7 fold | mean fold increase in resistance (Table 11 #4, protease genotype 10I): 0.7 fold | mean fold increase in resistance (Table 11 #5, protease genotype 10I + 84V): 1.8 fold | mean fold increase in resistance (Table 11 #6, protease genotype 10I + 84C): 4.3 fold | mean fold increase in resistance (Table 11 #7, protease genotype 77I): 0.4 fold | mean fold increase in resistance (Table 11 #8, protease genotype 77I + 84V): 2.5 fold | mean fold increase in resistance (Table 11 #9, protease genotype 77I + 84C): 3.1 fold | mean fold increase in resistance (Table 11 #10, protease genotype 77I + 84C): 3.2 fold | mean fold increase in resistance (Table 11 #11, protease genotype 10I + 24I + 36I + 46I + 71V + 84C): 7.5 fold | Fold change in IC50 (Table 12, V19263, genotype 77I): 0.4 fold | Fold change in IC50 (Table 12, V20160, genotype WT): 0.9 fold | Fold change in IC50 (Table 12, V021667, genotype 10I): 0.7 fold | Fold change in IC50 (Table 12, V030496, genotype 10I + 77I): 0.4 fold | Fold change in IC50 (Table 12, V048869, genotype 10I + 54M + 77I + 90M): 7.1 fold | Fold change in IC50 (Table 12, V048872, genotype 33F + 54M + 77I + 90M): 3.2 fold | Fold change in IC50 (Table 12, V048873, genotype 33F + 54M + 77I + 90M): 1.7 fold | Fold change in IC50 (Table 12, V048877, genotype 10I + 33F + 77I + 90M): 2.9 fold | Fold change in IC50 (Table 12, V048878, genotype 10I + 33F + 54M + 71V + 77I + 90M): 5.2 fold | Fold change in IC50 (Table 12, V048879, genotype 10I + 33F + 54M + 71V + 77I + 90M): 6.5 fold | Fold change in IC50 (Table 12, V048880, genotype 10I + 33F + 77I + 90M): 1.3 fold | Fold change in IC50 (Table 12, V052940, genotype 71V): 0.7 fold | Fold change in IC50 (Table 12, V052942, genotype 10I + 71V): 0.6 fold | Fold change in IC50 (Table 12, V052943, genotype 10I + 90M): 0.5 fold | Fold change in IC50 (Table 12, V052944, genotype 10I + 90M): 0.5 fold | Fold change in IC50 (Table 12, V052945, genotype 77I + 90M): 0.6 fold | Fold change in IC50 (Table 12, V052946, genotype 71V + 90M): 0.9 fold | Fold change in IC50 (Table 12, V052947, genotype 10I + 77I + 90M): 2.9 fold | Fold change in IC50 (Table 12, V052948, genotype 10I + 71V + 90M): 8.6 fold | Fold change in IC50 (Table 12, V052949, genotype 10I + 71V + 77I + 90M): 2.7 fold | Fold change in IC50 (Table 12, V052950, genotype 33F): 0.6 fold | Fold change in IC50 (Table 12, V052951, genotype 33F + 77I): 0.4 fold | Fold change in IC50 (Table 12, V052953, genotype 10I + 33F + 77I): 0.8 fold | Fold change in IC50 (Table 12, V052954, genotype 33F + 77I + 90M): 1.7 fold | Fold change in IC50 (Table 12, V052955, genotype 33F + 71V + 90M): 5.3 fold | Fold change in IC50 (Table 12, V052977, genotype 10I + 33F + 54M): 1.8 fold | Fold change in IC50 (Table 12, V052978, genotype 10I + 33F + 54M + 71V + 90M): 5.4 fold | Fold change in IC50 (Table 12, V052979, genotype 10I + 54M): 1.8 fold | Fold change in IC50 (Table 12, V052980, genotype 10I + 54M + 90M): 1.3 fold | Fold change in IC50 (Table 12, V052981, genotype 10I + 54M + 71V + 90M): 3.2 fold | Fold change in IC50 (Table 12, V052982, genotype 10I + 54M + 71V + 77I + 90M): 2.4 fold | Fold change in IC50 (Table 12, V053832, genotype 10I + 33F): 0.4 fold
